The RepoRT retention time repository (doi:10.1016/j.scitotenv.2015.08.078)

Test: RP, Waters ACQUITY UPLC BEH C18, 100 × 2.1 mm, 1.7 µm, 0.3 mL/min, estimated dead time 0.73 min; A: water + 0.1% formic acid, pH 3; B: methanol + 0.1% formic acid, pH 3; gradient (min/%B) 0/10 14/90 16/90 18/10
Details: stereoisomer not certain

SMILES | LC retention time
COc1ccnc(CS(=O)c2nc3ccc(OC(F)F)cc3[nH]2)c1OC (configuration not stated) [Pantoprazol] | 7.67 min
CC(C)(CO)NCC(O)c1cc(Cl)c(N)c(Cl)c1 (configuration not stated) [Hydroxymethyl clenbuterol] | 4.17 min
CCN(CC)c1nc(C)cc(OP(=S)(OC)OC)n1 [Pirimiphos-methyl] | 12.4 min
C=CCOC(Cn1ccnc1)c1ccc(Cl)cc1Cl (configuration not stated) [Imazalil] | 9.14 min
O=C(NC(=O)c1c(F)cccc1F)Nc1ccc(Cl)cc1 [Diflubenzuron] | 11.2 min
O=C(NC(=O)c1c(F)cccc1F)Nc1cc(Cl)c(OC(F)(F)C(F)F)c(Cl)c1 [Hexaflumuron] | 12.6 min
FC(F)C(F)(F)OCC(Cn1cncn1)c1ccc(Cl)cc1Cl (configuration not stated) [Tetraconazole] | 11.6 min
O=C(C1CCCCC1)N1CC(=O)N2CCc3ccccc3C2C1 (configuration not stated) [Praziquantel] | 10.1 min
CCC(C)C1OC2(CCC1C)CC1CC(CC=C(C)C(OC3CC(OC)C(OC4CC(OC)C(O)C(C)O4)C(C)O3)C(C)C=CC=C3COC4C(O)C(C)=CC(C(=O)O1)C34O)O2 (configuration not stated) [Ivermectin] | 16.3 min
CCOP(=O)(NC(C)C)Oc1ccc(SC)c(C)c1 (configuration not stated) [Fenamiphos] | 11.3 min
CCC(C(=O)O)C1OC(C(C)C(O)C(C)C(=O)C(CC)C2OC3(C=CC(O)C4(CCC(C)(C5CCC(O)(CC)C(C)O5)O4)O3)C(C)CC2C)C(C)CC1C (configuration not stated) [Narasin] | 16.5 min
CCN(CC)C(=O)SCc1ccccc1Cl [Orbencarb] | 11.9 min
COP(=O)(OC)Oc1ccc(S(C)(=O)=O)c(C)c1 [Fenoxon sulfone] | 5.35 min
CCn1cc(C(=O)O)c(=O)c2cc3c(cc21)OCO3 [Oxolinic acid] | 6.58 min
O=C(OC1CC2CCC(N2)C1C(=O)O)c1ccccc1 (configuration not stated) [Norbenzoylecgonine] | 5.1 min
CCS(=O)(=O)c1nc2ccccn2c1S(=O)(=O)NC(=O)Nc1nc(OC)cc(OC)n1 [Sulfosulfuron] | 6.42 min

SMILES | LC retention time
CON=C(C(=O)NC1C(=O)N2C(C(=O)O)=C(COC(C)=O)CSC12)c1csc(N)n1 (configuration not stated) [Cefotaxime] | 4.41 min
NS(=O)(=O)c1cc(C(=O)O)c(NCc2ccco2)cc1Cl [Furosemide] | 6.6 min
CC(=O)OCC12CC(OC(=O)CC(C)C)C(C)=CC1OC1C(O)C(O)C2(C)C12CO2 (configuration not stated) [HT-2 Toxin] | 7.95 min
CCCCN(CC)C(=O)SCCC [Pebulate (Tillam)] | 12.1 min
CN(C(=O)COc1nc2ccccc2s1)c1ccccc1 [Mefenacet] | 10.7 min
CN(C)c1nc(=O)n(C2CCCCC2)c(=O)n1C [Hexazinone] | 7.56 min
CCC1(C2OC(C3OC(O)(CO)C(C)CC3C)CC2C)CCC(C2(C)CCC3(CC(O)C(C)C(C(C)C(OC)C(C)C(=O)O)O3)O2)O1 (configuration not stated) [Monensin] | 15.3 min
Cc1c(N)c(=O)n(-c2ccccc2)n1C [4-amino-antipyrine] | 2.92 min
CN1C(=O)C(O)N=C(c2ccccc2)c2cc(Cl)ccc21 (configuration not stated) [Temazepam] | 10.1 min
CCOP(=O)(OCC)OC(=CCl)c1ccc(Cl)cc1Cl [Chlorfenvinphos] | 12 min
CCOP(=S)(OCC)OP(=S)(OCC)OCC [Sulfotep] | 11.5 min
C=CCN(CC=C)C(=O)C(Cl)Cl [Dichlormid] | 7.52 min
COC1CC(OC2CC(C3OC(C)(O)C(C)CC3C)OC2C2(C)CCC(C3(C)CCC4(CC(O)C(C)C(C(C)C5OC(O)(CC(=O)O)C(C)C(OC)C5OC)O4)O3)O2)OC(C)C1OC (configuration not stated) [Maduramicine] | 15.7 min
CCNc1nc(Cl)nc(NCC)n1 [Simazine] | 7.91 min
CC(C)(C)c1ccc(CSc2cnn(C(C)(C)C)c(=O)c2Cl)cc1 [Pyridaben] | 14 min
CC12CCC3C4CCC(=O)C=C4CCC3C1CCC2O (stereo not drawn) [Nandrolone. beta-nortestosterone] | 10.6 min
